The Ki is a measure of affinity in units of concentration, obtained from inhibition or displacement. One may read the IC50 as the concentration at which inhibition is half-maximal.

The target in assay [1] is T1, Cannabinoid receptor 2 (Homo sapiens, UniProt P34972). Nature of the assay: Displacement of [H3]-CP-55940 from human recombinant CB2 receptor expressed in CHO cells. The class given is cell-based.
The next assay addresses Cannabinoid receptor 1 (Homo sapiens, UniProt P21554). Kind of assay: Displacement of [H3]-CP-55940 from human recombinant CB1 receptor expressed in CHO cells. In kind it is cell-based.
For the next assay, the species on record is Homo sapiens. Nature of the assay: Selectivity ratio of Ki for human recombinant CB1 receptor to Ki for human recombinant CB2 receptor.
For assay [2], the target named is T1, Cannabinoid receptor 2. Kind of assay: Agonist activity at human recombinant CB2 receptor expressed in CHO cells assessed as inhibition of forskolin-induced accumulation of cAMP. In kind it is functional, cell-based.

Chain of Cannabinoid receptor 1 (P21554 whole entry, looked up): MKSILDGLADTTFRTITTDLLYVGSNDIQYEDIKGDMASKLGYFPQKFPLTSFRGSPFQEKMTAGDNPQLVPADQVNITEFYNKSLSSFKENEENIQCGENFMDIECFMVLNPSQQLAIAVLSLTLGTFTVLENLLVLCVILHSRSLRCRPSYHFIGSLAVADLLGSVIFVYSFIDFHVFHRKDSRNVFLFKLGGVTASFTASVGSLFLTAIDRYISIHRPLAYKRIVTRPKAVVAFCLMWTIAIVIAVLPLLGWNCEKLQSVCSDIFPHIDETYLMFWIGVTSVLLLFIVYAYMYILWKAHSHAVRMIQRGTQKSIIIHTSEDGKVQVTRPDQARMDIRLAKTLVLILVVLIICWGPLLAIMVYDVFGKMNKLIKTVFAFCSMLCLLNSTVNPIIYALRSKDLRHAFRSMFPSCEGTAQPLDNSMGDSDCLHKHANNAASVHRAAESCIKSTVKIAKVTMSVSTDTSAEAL
T1 sequence (P34972 whole entry): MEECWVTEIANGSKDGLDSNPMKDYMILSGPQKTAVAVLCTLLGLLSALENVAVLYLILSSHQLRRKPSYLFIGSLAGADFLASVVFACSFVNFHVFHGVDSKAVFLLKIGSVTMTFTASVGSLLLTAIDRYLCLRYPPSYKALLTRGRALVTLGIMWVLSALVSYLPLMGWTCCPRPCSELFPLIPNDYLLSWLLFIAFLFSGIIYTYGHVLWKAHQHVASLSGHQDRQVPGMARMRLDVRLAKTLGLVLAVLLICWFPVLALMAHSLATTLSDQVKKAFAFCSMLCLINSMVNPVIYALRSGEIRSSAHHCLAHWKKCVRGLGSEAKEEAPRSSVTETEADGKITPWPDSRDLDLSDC

With `CCCn1c(C)c(C)cc(Oc2nc3ccccc3o2)c1=S`, the Ki on Cannabinoid receptor 2 [1] turned out to be 276 nM.

Take `CCCCn1c(C)c(C)cc(NC(C)=O)c1=O`: the Ki on Cannabinoid receptor 2 [1] and on Cannabinoid receptor 1 was more than 5000 nM each time.

As to `CCCCn1c(C)c(C)cc(NC(=O)c2cccc3ccccc23)c1=O`, the results for the inhibition constant Ki at Cannabinoid receptor 2 [1] and on Cannabinoid receptor 1 were 12 nM and 19 nM, respectively. Moreover, the Ratio Ki in the assay listed under Homo sapiens was 1.6.

Regarding `CCN1C(=O)C(Sc2nc3ccccc3o2)c2ccccc2C1C` (stereo unspecified), the figures for the inhibitory constant (Ki) at Cannabinoid receptor 2 [1] and on Cannabinoid receptor 1 were 42 nM and more than 5000 nM, respectively.

For the compound `CCCCn1ccc(C)c(Oc2nc3ccccc3o2)c1=S`, the inhibitory constant (Ki) on Cannabinoid receptor 2 [1] was determined as 235 nM.

Take `CCCCn1c(C)c(C)cc(NC(=O)c2ccc3ccccc3c2)c1=O`: the Ki at Cannabinoid receptor 2 [1] is 768 nM; at Cannabinoid receptor 1 it was more than 5000 nM.

Consider `CCCCn1c(C)c(C)cc(NC(=O)c2ccccc2C)c1=O`, for which the inhibition constant Ki on Cannabinoid receptor 1 was found to be 390 nM. Further, the IC50 on Cannabinoid receptor 2 [2] came out at 13 nM.

Regarding `CCCCn1c(C)c(C)cc(NC(=O)c2ccc(C)cc2)c1=O`, the inhibition constant Ki came out at 72 nM on Cannabinoid receptor 2 [1] and 854 nM on Cannabinoid receptor 1.

Consider `CCCCn1c(C)c(C)cc(NC(=O)c2ccccc2Cl)c1=O`, for which the inhibition constant (Ki) on Cannabinoid receptor 1 was found to be 391 nM.

For the compound `CCCCn1c(C)c(C)cc(NC(=O)Cc2ccccc2)c1=O`, the figures for the Ki at Cannabinoid receptor 2 [1] and on Cannabinoid receptor 1 were 1310 nM and more than 5000 nM, respectively.

Turning to `CCCCn1cc(C)cc(Oc2nc3ccccc3o2)c1=S`, the Ki at Cannabinoid receptor 2 [1] was 236 nM.

In the case of `CCCCCn1c(C)c(C)cc(Oc2nc3ccccc3o2)c1=S`, at Cannabinoid receptor 2 [1], the Ki is 214 nM.

Regarding `CCCCn1cccc(Oc2nc3ccccc3o2)c1=S`, the inhibitory constant (Ki) at Cannabinoid receptor 2 [1] turned out to be 490 nM.

As to `CCCCCCn1c(C)c(C)cc(Oc2nc3ccccc3o2)c1=S`, the inhibition constant (Ki) on Cannabinoid receptor 2 [1] was found to be 609 nM.

`CCCCn1c(C)c(C)cc(NC(=O)c2ccccc2F)c1=O`: the Ki was determined as 88 nM at Cannabinoid receptor 2 [1] and 617 nM at Cannabinoid receptor 1.

Take `CCCCn1c(C)c(C)cc(NC(=O)c2cccc(C)c2)c1=O`: the Ki is 42 nM on Cannabinoid receptor 2 [1] and 343 nM at Cannabinoid receptor 1.

Take `CCCCn1c(C)c(C)cc(Oc2nc3ccccc3o2)c1=O`: the Ki on Cannabinoid receptor 2 [1] was 976 nM.

For `CCn1c(C)c(C)cc(Oc2nc3ccccc3o2)c1=S`, on Cannabinoid receptor 2 [1], the Ki is 3850 nM.

Take `CN1CCCCC1Cn1cc(C(=O)c2cc([N+](=O)[O-])ccc2I)c2ccccc21` (stereo unspecified): the Ratio Ki in the assay listed under Homo sapiens was 80.

As to `CCCCn1c(C)c(C)cc(NC(=O)c2ccccc2)c1=O`, the inhibition constant (Ki) at Cannabinoid receptor 2 [1] was determined as 89 nM; on Cannabinoid receptor 1 it was 1380 nM.

These data come from ChEMBL document CHEMBL2346633, “Design, synthesis, and binding mode prediction of 2-pyridone-based selective CB2 receptor agonists” (Bioorg Med Chem, 2013).
